Measurements as given in PMC11674305, “Inhibition of Neural Crest Cell Migration by Strobilurin Fungicides and Other Mitochondrial Toxicants” (Cells, 2024).

How the values were obtained:
[1] = system: neural crest cells (NCC); test: Intracellular ATP measurement (CellTiterGlo); type: cell-based, human; conditions: after 60 min, at BMC10 (V) of cMINC
Method: Cells were seeded at a density of 20,000 cells/well. The NCCs were treated with the BMC10 (V) of the cMINC screen for one hour, six hours or 24 h. Then, a CellTiterGlo-Triton mix was prepared. Therefore, a 0.5% Triton solution in PBS was prepared, and the commercial reagent mix CellTiterGlo 2.0 (Promgea, Madison, WI, USA) was added in a 1:1 ratio. An amount of 50 µL/well of the mix was added to 100 µL of medium. The plate was shaken for two minutes, and 100 µL of the cell mixture was transferred to a white measurement plate. For the blank value, only medium with the mix was measured. Luminescence data of samples were normalized to DMSO solvent controls, and the ATP data are given in % relative to “untreated cells”.

[2] = design: species or system human
Method: Figure 8 Consideration of biokinetics for refined hazard (potency) estimates. (A) Concentration–response curve of the oxygen consumption rate (OCR) in NCCs cultured in galactose medium after a 24 h treatment with picoxystrobin. The highest tested concentration was 2.8 µM (highest non-cytotoxic exposure). Data are shown for two independent experiments (as in Figure 7B). (B) The cMINC assay was performed as in Figure 1, but the NCCs were cultured in galactose medium. The insert box gives picoxystrobin potency data for migration (M) and cytotoxicity (V), and their ratio. Data are expressed as means ± SEM from seven independent experiments. (C) Schematic illustration of the distribution of picoxystrobin in a cell culture well according to the in silico biokinetics prediction model. Data for each compartment are given either as percentage (left) or as concentrations (right) for a nominal concentration of 1 µM. (D) Tabular overview of the distribution of picoxystrobin in the different compartments at a nominal concentration of 1 µM. Mediumt: total medium; Mediumb: bound in medium; Mediumu: unbound in medium; Cellst: total amount in cells; CellsM: mitochondrial compartment; CellsL: lysosomal compartment; CellsR: “rest” of the cells. […] (E) Synoptic overview of predicted and measured concentrations of picoxystrobin. […]

[3] = Estimate of maximal tolerable/acceptable exposure; design: species or system human; conditions: per day; LOEL with safety factor of 100, same as ADI of FAO/WHO 2012 report
Method: An estimate of the maximal external exposure was obtained as the next step of the study. We used two different approaches, based on (i) setting the acceptable daily intake as the upper limit and (ii) referring to the no-observed-effect level (NOEL) in an animal study (detailed in Figure 7A). We concluded from both approaches that a plausible upper daily tolerated threshold is 0.09 mg/kg. This value was used in a physiologically based kinetic (PBK) model to obtain concentration time data for different tissues in mothers and their fetus. Assuming a repeated daily exposure, the maximal maternal plasma concentrations were predicted to be in the 200–300 nM range. The maximal steady-state fetal brain concentrations were predicted to be in the 100 nM range (5th and 95th percentiles for exposure in the population of 100 subjects were 60–190 nM) (Figure 7B). […] Next, we used some advanced assays to obtain a better understanding of the potency range of picoxystrobin when used in different experimental setups. […]
Figure 7 Comparison of internal exposure estimates and primary effect potency. […] Data are expressed as means ± SEM from three independent biological experiments. ^# LOEL of animal study is based on a 90-day dog study (REF: https://www.fao.org/3/i3111e/i3111e.pdf (accessed on 15 June 2024)). *^,§ There is also an old (no longer valid) value by EFSA of 0.043 mg/kg/day from the year 2004 [71]. […]

SMILES: CO/C=C(/C(=O)OC)c1ccccc1COc1cccc(C(F)(F)F)n1 [Picoxystrobin, picoxystrobin]
- ATP levels [1]: did not decrease
- MoE for fetus (nominal data) [2]: 2-100 fold
- upper daily tolerated threshold / estimate of max. exposure [tolerable/acceptable] [3]: 0.09 mg/kg
